Columns and labels:
TYRO3 = target: T1, TYRO3 (Homo sapiens, UniProt Q06418); assay: Proqinase Kinase profiling; format: biochemical; conditions: read-out: % inhibition at 100nM
T1 construct: purchased DiscoverX

DYRK2 = target: T2, DYRK2 (Homo sapiens, UniProt Q92630); assay: Proqinase Kinase profiling; format: biochemical; conditions: read-out: % inhibition at 100nM
T2 construct: purchased DiscoverX

JAK2 = target: T3, JAK2 (Homo sapiens, UniProt O60674); assay: Proqinase Kinase profiling; format: biochemical; conditions: read-out: % inhibition at 100nM
T3 construct: purchased DiscoverX

CSNK1D = target: T4, CSNK1D (Homo sapiens, UniProt P48730); assay: Proqinase Kinase profiling; format: biochemical; conditions: read-out: % inhibition at 100nM
T4 construct: purchased DiscoverX

ABL2 = target: T5, ABL2 (Homo sapiens, UniProt P42684); assay: Proqinase Kinase profiling; format: biochemical; conditions: read-out: % inhibition at 100nM
T5 construct: purchased DiscoverX

ALK2 = target: T6, ALK2 (Homo sapiens, UniProt Q04771); assay: DiscoverX Kd determination; format: binding
T6 construct: T7 phage fusion (or DNA tag for qPCR if made in HEK-293); purchased DiscoverX; host or cells: E. coli (T7 phage) or HEK-293
Method: (§1) DiscoverX Kd determination: For most assays, kinase-tagged T7 phage strains were prepared in an E. coli host derived from the BL21 strain. E. coli were grown to log-phase and infected with T7 phage and incubated with shaking at 32°C until lysis. The lysates were centrifuged and filtered to remove cell debris. The remaining kinases were produced in HEK-293 cells and subsequently tagged with DNA for qPCR detection. […] The liganded beads were blocked with excess biotin and washed with blocking buffer (SeaBlock (Pierce), 1% BSA, 0.05% Tween 20, 1 mM DTT) to remove unbound ligand and to reduce non-specific binding. […] Kds were determined using an 11-point 3-fold compound dilution series with three DMSO control points. […] The compounds were then diluted directly into the assays such that the final concentration of DMSO was 0.9%. All reactions performed in polypropylene 384-well plate. Each was a final volume of 0.02 ml. […] The kinase concentration in the eluates was measured by qPCR. An 11-point 3-fold serial dilution of each test compound was prepared in 100% DMSO at 100x final test concentration and subsequently diluted to 1x in the assay (final DMSO concentration = 1%). Most Kds were determined using a compound top concentration = 30.000 nM. […] Binding constants (Kds) were calculated with a standard dose-response curve using the Hill equation: Response = Background + Signal – Background 1 + (KdHill Slope / DoseHill Slope). The Hill Slope was set to -1. Curves were fitted using a non-linear least square fit with the Levenberg-Marquardt algorithm.

ALK4 = target: T7, ALK4 (Homo sapiens, UniProt P36896); assay: DiscoverX Kd determination; format: binding
T7 construct: T7 phage fusion (or DNA tag for qPCR if made in HEK-293); purchased DiscoverX; host or cells: E. coli (T7 phage) or HEK-293
Method: as §1

ALK1 = target: T8, ALK1 (Homo sapiens, UniProt P37023); assay: DiscoverX Kd determination; format: binding
T8 construct: T7 phage fusion (or DNA tag for qPCR if made in HEK-293); purchased DiscoverX; host or cells: E. coli (T7 phage) or HEK-293
T8 sequence (P37023 22-503): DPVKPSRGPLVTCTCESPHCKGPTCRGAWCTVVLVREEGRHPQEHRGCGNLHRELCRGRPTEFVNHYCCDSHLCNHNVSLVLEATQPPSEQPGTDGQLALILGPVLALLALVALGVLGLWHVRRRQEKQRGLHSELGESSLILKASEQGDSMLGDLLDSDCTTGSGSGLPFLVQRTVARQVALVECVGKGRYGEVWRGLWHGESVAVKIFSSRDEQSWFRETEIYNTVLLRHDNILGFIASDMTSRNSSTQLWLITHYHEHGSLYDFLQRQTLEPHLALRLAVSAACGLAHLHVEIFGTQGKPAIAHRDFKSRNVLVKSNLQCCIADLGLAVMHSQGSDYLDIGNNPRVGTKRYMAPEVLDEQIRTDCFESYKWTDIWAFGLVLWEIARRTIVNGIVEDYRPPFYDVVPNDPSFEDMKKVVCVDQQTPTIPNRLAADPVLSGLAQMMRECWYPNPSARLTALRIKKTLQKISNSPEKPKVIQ
Method: as §1

ALK5 = target: T9, ALK5 (Homo sapiens, UniProt P36897); assay: DiscoverX Kd determination; format: binding
T9 construct: T7 phage fusion (or DNA tag for qPCR if made in HEK-293); purchased DiscoverX; host or cells: E. coli (T7 phage) or HEK-293
Method: as §1

ALK3 = target: T10, ALK3 (Homo sapiens, UniProt P36894); assay: DiscoverX Kd determination; format: binding
T10 construct: T7 phage fusion (or DNA tag for qPCR if made in HEK-293); purchased DiscoverX; host or cells: E. coli (T7 phage) or HEK-293
Method: as §1

PRKCB1_II = target: T11, PRKCB1_II (Homo sapiens, UniProt P05771); assay: Proqinase Kinase profiling; format: biochemical; conditions: read-out: % inhibition at 100nM
T11 construct: purchased DiscoverX

BRAF = target: T12, BRAF (Homo sapiens, UniProt P15056); assay: Proqinase Kinase profiling; format: biochemical; conditions: read-out: % inhibition at 100nM
T12 construct: purchased DiscoverX

CSNK1G3 = target: T13, CSNK1G3 (Homo sapiens, UniProt Q9Y6M4); assay: Proqinase Kinase profiling; format: biochemical; conditions: read-out: % inhibition at 100nM
T13 construct: purchased DiscoverX
T13 sequence (Q9Y6M4 whole entry): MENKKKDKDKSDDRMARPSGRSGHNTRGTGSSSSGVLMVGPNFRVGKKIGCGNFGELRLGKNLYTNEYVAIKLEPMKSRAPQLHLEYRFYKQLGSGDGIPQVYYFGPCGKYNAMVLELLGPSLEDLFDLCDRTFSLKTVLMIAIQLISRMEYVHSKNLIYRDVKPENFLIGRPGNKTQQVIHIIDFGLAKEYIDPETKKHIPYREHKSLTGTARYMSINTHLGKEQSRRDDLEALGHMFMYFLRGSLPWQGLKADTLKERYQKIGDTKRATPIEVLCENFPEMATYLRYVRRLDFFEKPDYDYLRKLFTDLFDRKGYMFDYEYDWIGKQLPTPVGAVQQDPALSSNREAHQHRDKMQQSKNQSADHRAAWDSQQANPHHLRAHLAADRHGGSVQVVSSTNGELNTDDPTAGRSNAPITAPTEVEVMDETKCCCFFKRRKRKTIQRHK

ACVR2B = target: T14, ACVR2B (Homo sapiens, UniProt Q13705); assay: Proqinase Kinase profiling; format: biochemical; conditions: read-out: % inhibition at 100nM
T14 construct: T7 phage fusion (or DNA tag for qPCR if made in HEK-293); purchased DiscoverX; host or cells: E. coli (T7 phage) or HEK-293

RET = target: T15, RET (Homo sapiens, UniProt P07949); assay: Proqinase Kinase profiling; format: biochemical; conditions: read-out: % inhibition at 100nM
T15 construct: purchased DiscoverX

TAOK3 = target: T16, TAOK3 (Homo sapiens, UniProt Q9H2K8); assay: Proqinase Kinase profiling; format: biochemical; conditions: read-out: % inhibition at 100nM
T16 construct: purchased DiscoverX

KIT_T670I = target: T17, KIT_T670I (Homo sapiens, UniProt P10721, T670I); assay: Proqinase Kinase profiling; format: biochemical; conditions: read-out: % inhibition at 100nM
T17 construct: purchased DiscoverX

FGFR3_K650M = target: T18, FGFR3_K650M (Homo sapiens, UniProt P22607, K650M); assay: Proqinase Kinase profiling; format: biochemical; conditions: read-out: % inhibition at 100nM
T18 construct: purchased DiscoverX

TEK = target: T19, TEK (Homo sapiens, UniProt Q02763); assay: Proqinase Kinase profiling; format: biochemical; conditions: read-out: % inhibition at 100nM
T19 construct: purchased DiscoverX

PIM1 = target: T20, PIM1 (Homo sapiens, UniProt P11309); assay: Proqinase Kinase profiling; format: biochemical; conditions: read-out: % inhibition at 100nM
T20 construct: purchased DiscoverX

SRPK3 = target: T21, SRPK3 (Homo sapiens, UniProt Q9UPE1); assay: Proqinase Kinase profiling; format: biochemical; conditions: read-out: % inhibition at 100nM
T21 construct: purchased DiscoverX
T21 sequence (Q9UPE1 whole entry): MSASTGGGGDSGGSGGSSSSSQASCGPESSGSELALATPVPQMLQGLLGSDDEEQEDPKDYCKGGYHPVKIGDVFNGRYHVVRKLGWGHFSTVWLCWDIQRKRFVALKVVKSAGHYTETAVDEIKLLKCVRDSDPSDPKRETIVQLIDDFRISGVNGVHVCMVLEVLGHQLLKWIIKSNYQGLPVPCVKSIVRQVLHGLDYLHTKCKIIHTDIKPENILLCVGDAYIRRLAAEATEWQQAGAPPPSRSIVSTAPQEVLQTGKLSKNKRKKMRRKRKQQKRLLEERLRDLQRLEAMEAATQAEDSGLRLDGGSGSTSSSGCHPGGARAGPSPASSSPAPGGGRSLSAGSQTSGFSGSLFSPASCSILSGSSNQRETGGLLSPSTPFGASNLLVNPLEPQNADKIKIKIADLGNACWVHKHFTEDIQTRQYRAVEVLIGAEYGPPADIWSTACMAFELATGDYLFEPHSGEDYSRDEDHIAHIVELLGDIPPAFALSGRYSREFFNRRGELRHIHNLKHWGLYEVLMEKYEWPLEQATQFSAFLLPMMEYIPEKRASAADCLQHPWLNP

ABL1_Y253F = target: T22, ABL1_Y253F (Homo sapiens, UniProt P00519, Y253F); assay: Proqinase Kinase profiling; format: biochemical; conditions: read-out: % inhibition at 100nM
T22 construct: purchased DiscoverX

MARK3 = target: T23, MARK3 (Homo sapiens, UniProt P27448); assay: Proqinase Kinase profiling; format: biochemical; conditions: read-out: % inhibition at 100nM
T23 construct: purchased DiscoverX

PHKG2 = target: T24, PHKG2 (Homo sapiens, UniProt P15735); assay: Proqinase Kinase profiling; format: biochemical; conditions: read-out: % inhibition at 100nM
T24 construct: purchased DiscoverX
T24 sequence (P15735 whole entry): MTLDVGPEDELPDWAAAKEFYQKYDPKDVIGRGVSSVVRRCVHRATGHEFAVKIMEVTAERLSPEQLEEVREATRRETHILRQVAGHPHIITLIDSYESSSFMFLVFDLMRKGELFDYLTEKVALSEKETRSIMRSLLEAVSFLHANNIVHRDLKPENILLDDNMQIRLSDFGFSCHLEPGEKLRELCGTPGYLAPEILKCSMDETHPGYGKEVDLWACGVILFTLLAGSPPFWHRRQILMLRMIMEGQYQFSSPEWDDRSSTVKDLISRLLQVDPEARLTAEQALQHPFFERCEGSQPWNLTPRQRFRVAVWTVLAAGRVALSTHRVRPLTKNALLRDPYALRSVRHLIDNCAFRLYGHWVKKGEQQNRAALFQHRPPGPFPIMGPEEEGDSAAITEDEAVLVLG

EGFR_L861Q = target: T25, EGFR_L861Q (Homo sapiens, UniProt P00533, L861Q); assay: Proqinase Kinase profiling; format: biochemical; conditions: read-out: % inhibition at 100nM
T25 construct: purchased DiscoverX

PRKCB1_I = target: T26, PRKCB1_I (Homo sapiens, UniProt P05771); assay: Proqinase Kinase profiling; format: biochemical; conditions: read-out: % inhibition at 100nM
T26 construct: purchased DiscoverX
T26 sequence (P05771 whole entry): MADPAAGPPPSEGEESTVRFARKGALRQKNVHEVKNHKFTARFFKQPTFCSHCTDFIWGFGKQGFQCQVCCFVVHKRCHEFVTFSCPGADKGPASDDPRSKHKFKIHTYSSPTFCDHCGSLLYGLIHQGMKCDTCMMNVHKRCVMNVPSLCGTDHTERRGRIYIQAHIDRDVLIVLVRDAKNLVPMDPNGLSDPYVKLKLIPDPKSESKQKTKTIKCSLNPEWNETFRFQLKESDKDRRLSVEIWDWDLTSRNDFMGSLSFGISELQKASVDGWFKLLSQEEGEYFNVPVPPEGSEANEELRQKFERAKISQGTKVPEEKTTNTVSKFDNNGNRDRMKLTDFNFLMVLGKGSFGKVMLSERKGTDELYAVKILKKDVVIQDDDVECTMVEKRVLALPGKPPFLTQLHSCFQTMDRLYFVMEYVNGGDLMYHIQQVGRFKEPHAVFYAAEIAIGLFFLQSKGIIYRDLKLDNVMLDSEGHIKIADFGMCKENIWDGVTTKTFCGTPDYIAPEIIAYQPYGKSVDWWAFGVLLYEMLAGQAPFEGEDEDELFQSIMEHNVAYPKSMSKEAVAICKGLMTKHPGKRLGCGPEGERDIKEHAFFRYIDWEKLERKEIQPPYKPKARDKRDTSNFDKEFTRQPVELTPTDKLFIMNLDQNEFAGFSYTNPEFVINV

MAP2K2 = target: T27, MAP2K2 (Homo sapiens, UniProt P36507); assay: Proqinase Kinase profiling; format: biochemical; conditions: read-out: % inhibition at 100nM
T27 construct: purchased DiscoverX

PRKX = target: T28, PRKX (Homo sapiens, UniProt P51817); assay: Proqinase Kinase profiling; format: biochemical; conditions: read-out: % inhibition at 100nM
T28 construct: purchased DiscoverX
T28 sequence (P51817 whole entry): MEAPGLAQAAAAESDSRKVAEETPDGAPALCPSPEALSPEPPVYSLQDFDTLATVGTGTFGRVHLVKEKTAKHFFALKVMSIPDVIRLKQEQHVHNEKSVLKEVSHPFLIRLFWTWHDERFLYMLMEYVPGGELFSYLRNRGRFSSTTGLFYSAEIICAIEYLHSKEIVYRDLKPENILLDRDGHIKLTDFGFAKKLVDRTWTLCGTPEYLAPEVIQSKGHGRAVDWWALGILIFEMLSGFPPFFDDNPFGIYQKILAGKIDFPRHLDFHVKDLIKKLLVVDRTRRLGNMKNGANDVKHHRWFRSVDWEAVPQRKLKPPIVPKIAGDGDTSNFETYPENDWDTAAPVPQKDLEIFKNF

CDC42BPB = target: T29, CDC42BPB (Homo sapiens, UniProt Q9Y5S2); assay: Proqinase Kinase profiling; format: biochemical; conditions: read-out: % inhibition at 100nM
T29 construct: purchased DiscoverX

INSR = target: T30, INSR (Homo sapiens, UniProt P06213); assay: Proqinase Kinase profiling; format: biochemical; conditions: read-out: % inhibition at 100nM
T30 construct: purchased DiscoverX

PRKCE = target: T31, PRKCE (Homo sapiens, UniProt Q02156); assay: Proqinase Kinase profiling; format: biochemical; conditions: read-out: % inhibition at 100nM
T31 construct: purchased DiscoverX
T31 sequence (Q02156 whole entry): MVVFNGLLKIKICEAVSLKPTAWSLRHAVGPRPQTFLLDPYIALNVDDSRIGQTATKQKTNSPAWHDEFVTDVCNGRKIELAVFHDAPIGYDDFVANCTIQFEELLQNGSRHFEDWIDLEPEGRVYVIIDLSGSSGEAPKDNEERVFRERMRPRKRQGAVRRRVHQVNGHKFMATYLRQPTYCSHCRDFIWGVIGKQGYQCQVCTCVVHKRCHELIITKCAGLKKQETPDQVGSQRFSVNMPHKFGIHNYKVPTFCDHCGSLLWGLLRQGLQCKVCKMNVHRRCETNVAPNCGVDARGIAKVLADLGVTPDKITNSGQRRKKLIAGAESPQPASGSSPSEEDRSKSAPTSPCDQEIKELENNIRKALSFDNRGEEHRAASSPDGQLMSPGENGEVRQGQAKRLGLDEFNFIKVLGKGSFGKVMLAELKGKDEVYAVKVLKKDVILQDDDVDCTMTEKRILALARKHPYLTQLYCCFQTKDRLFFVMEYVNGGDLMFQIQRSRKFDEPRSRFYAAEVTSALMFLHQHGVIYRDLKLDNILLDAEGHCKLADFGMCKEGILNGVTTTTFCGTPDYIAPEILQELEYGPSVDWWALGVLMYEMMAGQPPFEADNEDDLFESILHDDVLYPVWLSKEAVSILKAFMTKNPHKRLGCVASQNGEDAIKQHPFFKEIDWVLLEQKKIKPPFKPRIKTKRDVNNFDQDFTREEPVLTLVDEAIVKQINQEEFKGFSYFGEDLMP

MET_Y1230H = target: T32, MET_Y1230H (Homo sapiens, UniProt P08581, Y1230H); assay: Proqinase Kinase profiling; format: biochemical; conditions: read-out: % inhibition at 100nM
T32 construct: purchased DiscoverX

GSK3A = target: T33, GSK3A (Homo sapiens, UniProt P49840); assay: Proqinase Kinase profiling; format: biochemical; conditions: read-out: % inhibition at 100nM
T33 construct: purchased DiscoverX
T33 sequence (P49840 whole entry): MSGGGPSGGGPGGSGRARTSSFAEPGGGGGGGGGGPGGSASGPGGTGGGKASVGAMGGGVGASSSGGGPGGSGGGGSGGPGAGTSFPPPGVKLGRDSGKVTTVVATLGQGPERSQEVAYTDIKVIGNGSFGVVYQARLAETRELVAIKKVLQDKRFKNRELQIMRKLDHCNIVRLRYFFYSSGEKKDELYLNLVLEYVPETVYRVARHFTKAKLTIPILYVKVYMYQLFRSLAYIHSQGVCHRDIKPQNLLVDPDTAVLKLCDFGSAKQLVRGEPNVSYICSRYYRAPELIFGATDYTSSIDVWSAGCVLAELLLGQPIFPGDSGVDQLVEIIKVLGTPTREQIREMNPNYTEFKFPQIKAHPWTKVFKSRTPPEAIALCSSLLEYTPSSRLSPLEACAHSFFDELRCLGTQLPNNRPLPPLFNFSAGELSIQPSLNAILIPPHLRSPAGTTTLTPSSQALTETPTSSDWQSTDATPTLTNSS

RIPK2 = target: T34, RIPK2 (Homo sapiens, UniProt O43353); assay: Proqinase Kinase profiling; format: biochemical; conditions: read-out: % inhibition at 100nM
T34 construct: purchased DiscoverX

T1 sequence (Q06418 41-890): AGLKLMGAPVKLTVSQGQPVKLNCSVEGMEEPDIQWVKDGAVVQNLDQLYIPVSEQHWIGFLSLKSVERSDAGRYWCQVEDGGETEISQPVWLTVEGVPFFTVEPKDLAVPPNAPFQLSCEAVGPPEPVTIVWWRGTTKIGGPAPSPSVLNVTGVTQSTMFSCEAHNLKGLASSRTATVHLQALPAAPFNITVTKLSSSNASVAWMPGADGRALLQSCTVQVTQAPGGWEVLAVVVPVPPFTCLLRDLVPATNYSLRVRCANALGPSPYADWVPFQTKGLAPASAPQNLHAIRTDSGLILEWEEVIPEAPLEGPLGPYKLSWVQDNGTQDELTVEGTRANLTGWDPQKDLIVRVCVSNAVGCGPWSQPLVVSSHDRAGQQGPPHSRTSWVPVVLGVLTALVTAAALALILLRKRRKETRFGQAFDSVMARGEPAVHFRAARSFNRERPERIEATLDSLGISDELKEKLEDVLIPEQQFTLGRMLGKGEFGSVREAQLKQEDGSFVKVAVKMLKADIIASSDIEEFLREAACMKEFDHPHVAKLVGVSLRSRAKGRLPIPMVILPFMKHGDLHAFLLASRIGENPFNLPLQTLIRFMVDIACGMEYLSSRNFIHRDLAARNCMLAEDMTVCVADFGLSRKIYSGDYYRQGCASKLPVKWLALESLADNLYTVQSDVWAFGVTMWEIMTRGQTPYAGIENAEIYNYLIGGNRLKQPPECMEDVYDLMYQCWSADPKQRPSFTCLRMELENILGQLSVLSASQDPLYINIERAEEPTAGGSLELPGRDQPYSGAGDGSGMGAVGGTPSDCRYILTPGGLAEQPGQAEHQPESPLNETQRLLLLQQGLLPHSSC

Row | Compound | inhibition at 0.1 µM (TYRO3) [%] | inhibition at 0.1 µM (DYRK2) [%] | inhibition at 0.1 µM (JAK2) [%] | inhibition at 0.1 µM (CSNK1D) [%] | inhibition at 0.1 µM (ABL2) [%] | Kd (ALK2) [nM] | Kd (ALK4) [nM] | Kd (ALK1) [nM] | Kd (ALK5) [nM] | Kd (ALK3) [nM] | inhibition at 0.1 µM (PRKCB1_II) [%] | inhibition at 0.1 µM (BRAF) [%] | inhibition at 0.1 µM (CSNK1G3) [%] | inhibition at 0.1 µM (ACVR2B) [%] | inhibition at 0.1 µM (RET) [%] | inhibition at 0.1 µM (TAOK3) [%] | inhibition at 0.1 µM (KIT_T670I) [%] | inhibition at 0.1 µM (FGFR3_K650M) [%] | inhibition at 0.1 µM (TEK) [%] | inhibition at 0.1 µM (PIM1) [%] | further results
1 | Clc1cc2cc(c1)-c1cnn3ccc(nc13)NCCOCCO2 [OD36] | 5 | 2 | 7 | 10 | 3 | 37 | 3000 | 90 | 3000 | 3000 | -5 | 20 | 3 | 90 | 27 | 10 | 9 | 2 | 6 | 29 | inhibition at 0.1 µM (SRPK3): 9%; inhibition at 0.1 µM (ABL1_Y253F): 3%; inhibition at 0.1 µM (MARK3): 8%; inhibition at 0.1 µM (PHKG2): 1%; inhibition at 0.1 µM (EGFR_L861Q): 15%; inhibition at 0.1 µM (PRKCB1_I): 7%; inhibition at 0.1 µM (MAP2K2): -7%; inhibition at 0.1 µM (PRKX): 17%; inhibition at 0.1 µM (CDC42BPB): 7%; inhibition at 0.1 µM (INSR): 6%; inhibition at 0.1 µM (PRKCE): -1%; inhibition at 0.1 µM (MET_Y1230H): -3%; inhibition at 0.1 µM (GSK3A): 6%; inhibition at 0.1 µM (RIPK2): 97%
2 | Cc1cc2cc(c1)-c1cnn3ccc(nc13)NCCNC(=O)CCN(C)C2 [OD52] | -7 | 9 | 9 | 5 | -23 | 9.6 | 260 | 13 | 850 | 1300 | -7 | 16 | 2 | 17 | 28 | -1 | -23 | -2 | -7 | -3 | inhibition at 0.1 µM (SRPK3): -5%; inhibition at 0.1 µM (ABL1_Y253F): 7%; inhibition at 0.1 µM (MARK3): -1%; inhibition at 0.1 µM (PHKG2): -10%; inhibition at 0.1 µM (EGFR_L861Q): -4%; inhibition at 0.1 µM (PRKCB1_I): -5%; inhibition at 0.1 µM (MAP2K2): 7%; inhibition at 0.1 µM (PRKX): 34%; inhibition at 0.1 µM (CDC42BPB): 11%; inhibition at 0.1 µM (INSR): -4%; inhibition at 0.1 µM (PRKCE): -7%; inhibition at 0.1 µM (MET_Y1230H): -20%; inhibition at 0.1 µM (GSK3A): 1%; inhibition at 0.1 µM (RIPK2): 61%

— PMC6874179, “Development of Macrocycle Kinase Inhibitors for ALK2 Using Fibrodysplasia Ossificans Progressiva‐Derived Endothelial Cells” (JBMR Plus, 2019)
